Assay: Krafft point of TPNa aqueous solution
Assay type: physicochemical

Cc1c(C)c2c(c(C)c1OP(=O)([O-])[O-])CCC(C)(CCCC(C)CCCC(C)CCCC(C)C)O2.[Na+].[Na+] (racemic) [TPNa, sodium salt of the dl-α-tocopheryl phosphate]
Krafft point (Kp): 16.2 °C

From patent US20260241008A1, “COMPOSITION CONTAINING SELF-ASSEMBLED STRUCTURE AND FREEZE-DRIED PRODUCT THEREOF” (Resonac Corporation, priority 2023, published 2026)
